Test results published in patent publication US12653796B2, “Compounds for use (in particular RIPA-56) in the prevention and/or treatment of non-alcoholic fatty liver disease” (SORBONNE UNIVERSITE, priority 2019, dated 2026).

Legend:
[1] = tested on: L929 cells; assay: TNF-induced RIPK1-dependent cell death in L929 cells (MTT cell survival); type: cell-based; details: 20 μM, 2 h pre-treatment, TNF (50 ng/mL) 20 h
Description: FIG. 1. RIPA-56 prevents RIPK1-dependent cell death in L929 cells upon caspase inhibition and TNF stimulation. L929 cells were treated with RIPA-56 (20 μM), Nec-1 (20 μM) or vehicle for 2 h, prior to incubation with or without TNF (50 ng/mL), and analyzed for (A) morphology and (B) cell survival using MTT assay, after 20 h incubation with or without TNF; (C) Western blot analyses at different time points of incubation with TNF. Results are shown as mean±SEM; n.s., not significant; ****p<0.0001. Data are representative of three independent experiments.
L929 cells (LGC Standards, Molsheim, France), were cultured in Dulbecco's modified Eagle's medium (DMEM) (ThermoFisher, Massachusetts, USA) supplemented with 10% fetal bovine serum (Eurobio, Courtaboeuf, France), penicillin (100 IU/ml), streptomycin (0.1 mg/ml), and L-glutamine (0.03%) (ThermoFisher). […]
Cell viability was determined by using 3-(4,5-dimethylthiazol-2-yl)-[…] (MTT) colorimetric assay (ThermoFisher), which measures cell metabolic activity. […] Once MTT crystals were developed and controlled under light microscopy, they were dissolved in DMSO and quantified by measuring absorbance at 540 nm.

[2] = tested on: RIPK1; assay: ELISA of RIPK1 released in supernatant of L929 cells exposed to TNFα; type: cell-based, murine; details: 20 μM, 2 h, then TNFα (25 ng/mL) 6 h
Description: FIG. 12. […] Results are shown as mean±SEM of six replicates.
L929 cells (LGC Standards, Molsheim, France), were cultured in Dulbecco's modified Eagle's medium (DMEM) (ThermoFisher, Massachusetts, USA) supplemented with 10% fetal bovine serum (Eurobio, Courtaboeuf, France), penicillin (100 IU/ml), streptomycin (0.1 mg/ml), and L-glutamine (0.03%) (ThermoFisher). […] AML-12 (alpha mouse liver-12) hepatocytes (LGC Standards) were cultured in DMEM/F12 Medium (ThermoFisher) supplemented with 10% fetal bovine serum (Eurobio), 10 μg/ml insulin, 5.5 μg/ml transferrin, 5 ng/ml selenium and 40 ng/ml dexamethasone (Sigma, Missouri, USA). AML-12 hepatocytes were stimulated with insulin (#I0516, 10 nM; Sigma) for 15 minutes.
Protein concentrations of human RIPK1 (SEE640Hu; Could-Clone Corp., Texas, USA), human MLKL (SER645Hu; Could-Clone Corp.) and murine RIPK1 (CSB-EL019735MO; Cusabio, Texas, USA) were determined by an ELISA kit according to the manufacturer's instructions.

`CCC(C)(C)C(=O)N(O)Cc1ccccc1` [RIPA-56, N-Benzyl-N-hydroxy-2,2-dimethylbutanamide] was tested, and the RIPK1-dependent cell death [1] was “prevents” and the “RIPK1 in the supernatant” value [2] was “undetectable”.
